In the CheMixHub viscosity set:

Experiment: xn = mol fraction of the nth substance listed
Details: 101 kPa

O=C1CCCC1 + CN(C)c1ccccc1
viscosity [mPa·s]
Details	303.15 K	308.15 K
x2 = 0.0705	1.022	0.948
x2 = 0.1321	1.04	0.964
x2 = 0.2014	1.062	0.981
x2 = 0.2754	1.083	0.997
x2 = 0.3412	1.101	1.011
x2 = 0.4012	1.114	1.023
x2 = 0.4825	1.13	1.039
x2 = 0.5612	1.143	1.053
x2 = 0.6405	1.153	1.066
x2 = 0.7025	1.158	1.076
x2 = 0.7758	1.164	1.087
x2 = 0.8512	1.168	1.096
x2 = 0.9215	1.169	1.104

O=C1CCCC1 + CNC=O
viscosity [mPa·s]
Details	x2 = 0.0865	x2 = 0.1756	x2 = 0.2675	x2 = 0.3623	x2 = 0.4601	x2 = 0.5611	x2 = 0.6654	x2 = 0.7732	x2 = 0.8847
303.15 K	1.041	1.104	1.165	1.226	1.293	1.355	1.412	1.467	1.532
308.15 K	0.9797	1.035	1.09	1.144	1.204	1.258	1.309	1.358	1.414
313.15 K	0.9075	0.9589	1.01	1.059	1.114	1.164	1.21	1.255	1.307
318.15 K	0.8512	0.8981	0.9442	0.9895	1.039	1.085	1.127	1.167	1.215

CC(O)CO (stereo unspecified) + CO
viscosity [mPa·s]
Details	x1 = 0.1	x1 = 0.2	x1 = 0.3	x1 = 0.4	x1 = 0.5	x1 = 0.6	x1 = 0.7	x1 = 0.8	x1 = 0.9
298.15 K	0.8967	1.436	2.244	3.432	5.254	7.972	12.13	18.51	28.39
308.15 K	0.7629	1.187	1.814	2.731	4.083	6.016	8.726	12.53	17.88
318.15 K	0.6278	0.9689	1.457	2.129	3.054	4.33	6.037	8.242	11.2

Cc1ccccn1 + CO
Details	viscosity [mPa·s]
298.23 K, x1 = 0.4451	0.774
298.23 K, x1 = 0.5511	0.782
298.25 K, x1 = 0.1201	0.641
298.28 K, x1 = 0.6483	0.784
298.28 K, x1 = 0.8299	0.76
303.15 K, x1 = 0.2351	0.671
303.16 K, x1 = 0.1201	0.6
303.22 K, x1 = 0.6483	0.733
303.22 K, x1 = 0.8299	0.714
303.25 K, x1 = 0.4451	0.722
303.26 K, x1 = 0.5511	0.729
308.17 K, x1 = 0.1201	0.562
308.23 K, x1 = 0.6483	0.686
308.23 K, x1 = 0.8299	0.669
308.25 K, x1 = 0.5511	0.682
308.26 K, x1 = 0.4451	0.676
308.38 K, x1 = 0.2351	0.625
313.21 K, x1 = 0.2351	0.587
313.22 K, x1 = 0.1201	0.522
313.27 K, x1 = 0.6483	0.645
313.27 K, x1 = 0.8299	0.631
313.28 K, x1 = 0.4451	0.633
313.28 K, x1 = 0.5511	0.641
318.25 K, x1 = 0.2351	0.55
318.26 K, x1 = 0.1201	0.49
318.29 K, x1 = 0.6483	0.606
318.29 K, x1 = 0.8299	0.592
318.35 K, x1 = 0.5511	0.601
318.36 K, x1 = 0.4451	0.594

ClC=C(Cl)Cl + CO
viscosity [mPa·s]
Details	293.15 K	303.15 K	313.15 K	323.15 K
x2 = 0.017	0.554	0.507	0.466	0.429
x2 = 0.057	0.56	0.509	0.466	0.427
x2 = 0.152	0.58	0.523	0.476	0.435
x2 = 0.1523	–	0.56	0.524	0.473
x2 = 0.286	0.605	0.541	0.485	0.441
x2 = 0.3071	–	0.55	0.518	0.4735
x2 = 0.446	–	0.54	0.511	0.473
x2 = 0.562	0.656	0.576	0.508	0.452
x2 = 0.5963	–	0.53	0.505	0.474
x2 = 0.6	0.667	0.581	0.513	0.455
x2 = 0.699	0.674	0.59	0.519	0.461
x2 = 0.72	0.67	0.587	0.517	0.458
x2 = 0.756	–	0.518	0.497	0.475
x2 = 0.78	0.663	0.578	0.508	0.45
x2 = 0.9011	–	0.508	0.492	0.476
x2 = 0.92	0.62	0.543	0.477	0.423
